Test results published in article PMC7357027 (Biomolecules, 2020).
Entries after “also recorded” stand apart in the source; their conditions may differ. Like-named read-outs stand apart in the source and are kept apart here.

Molecular target: neuraminidase from Clostridium perfringens (Clostridium perfringens, UniProt A0A0H2YQR1)
Type: biochemical
Conditions: for Type of Inhibition: Lineweaver-Burk plot

neuraminidase from Clostridium perfringens, sequence (A0A0H2YQR1 42-694 limits assumed): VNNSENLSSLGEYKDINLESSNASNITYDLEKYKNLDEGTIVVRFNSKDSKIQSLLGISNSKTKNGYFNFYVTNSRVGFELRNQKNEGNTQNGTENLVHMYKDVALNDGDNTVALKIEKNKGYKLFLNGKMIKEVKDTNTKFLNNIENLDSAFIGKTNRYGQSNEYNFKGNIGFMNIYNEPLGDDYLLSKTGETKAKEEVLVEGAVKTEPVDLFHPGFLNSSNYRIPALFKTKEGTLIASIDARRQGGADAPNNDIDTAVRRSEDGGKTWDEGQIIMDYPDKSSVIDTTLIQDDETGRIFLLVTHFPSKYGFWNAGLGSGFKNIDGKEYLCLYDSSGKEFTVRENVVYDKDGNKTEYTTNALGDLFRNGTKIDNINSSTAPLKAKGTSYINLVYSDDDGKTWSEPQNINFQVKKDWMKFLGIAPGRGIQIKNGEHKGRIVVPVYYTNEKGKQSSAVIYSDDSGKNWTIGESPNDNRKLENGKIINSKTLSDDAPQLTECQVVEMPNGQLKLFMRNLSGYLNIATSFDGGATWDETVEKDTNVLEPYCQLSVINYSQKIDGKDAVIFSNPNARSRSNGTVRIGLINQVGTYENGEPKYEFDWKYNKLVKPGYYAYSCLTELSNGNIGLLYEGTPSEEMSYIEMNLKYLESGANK

C=C1COC(=O)[C@]12C[C@@]1(C)C([C@@H](OC(=O)/C=C\SC)CC[C@@H]1C)[C@H]2OC(C)=O (stereo partly shown) [compound 2, Bakkenolide D]
Type of Inhibition: non-competitive inhibition
Type of Inhibition (listed as Bakkenolide D (2)): non-competitive inhibitor; also recorded: Noncompetitive

O=C(/C=C/c1ccc(O)c(O)c1)O[C@@H]1C[C@](OC(=O)/C=C/c2ccc(O)c(O)c2)(C(=O)O)C[C@@H](O)[C@H]1O [compound 3, 1,5-di-O-Caffeoylquinic Acid]
Type of Inhibition: competitive inhibitor
Type of Inhibition (listed as 1,5-di-O-caffeoylquinic acid (3, 1,5-COQ)): Competitive
reversibility of inhibition (remaining enzyme activity versus enzyme concentration at different inhibitor concentrations (Figure 2b)): reversible inhibitor

O=C(/C=C/c1ccc(O)c(O)c1)O[C@@H]1C[C@](O)(C(=O)O)C[C@@H](O)[C@H]1O [compound 4, 5-O-Caffeoylquinic Acid]
Type of Inhibition: competitive inhibitor
Type of Inhibition (listed as 5-O-Caffeoylquinic acid (4, 5-COQ)): Competitive
